ChEMBL document CHEMBL1147528, “(S)-N-[1-(4-cyclopropylmethyl-3,4-dihydro-2H-benzo[1,4]oxazin-6-yl)-ethyl]-3-(2-fluoro-phenyl)-acrylamide is a potent and efficacious KCNQ2 opener which inhibits induced hyperexcitability of rat hippocampal neurons” (Bioorg Med Chem Lett, 2004)

What was measured:
[1] = target: Potassium voltage-gated channel subfamily KQT member 2 (Mus musculus) (UniProt Q9Z351); assay: Efficacy for mKCNQ2 expressed in HEK293 cells relative to reference compound; type: functional, cell-based
[2] = target: Potassium voltage-gated channel subfamily KQT member 2 (Mus musculus, UniProt Q9Z351); assay: Whole-cell patch-clamp on recombinant mouse KCNQ2 channels expressed in HEK 293 cells at -40 mV; type: functional, cell-based, HEK293
Potassium voltage-gated channel subfamily KQT member 2, sequence (Q9Z351 whole entry): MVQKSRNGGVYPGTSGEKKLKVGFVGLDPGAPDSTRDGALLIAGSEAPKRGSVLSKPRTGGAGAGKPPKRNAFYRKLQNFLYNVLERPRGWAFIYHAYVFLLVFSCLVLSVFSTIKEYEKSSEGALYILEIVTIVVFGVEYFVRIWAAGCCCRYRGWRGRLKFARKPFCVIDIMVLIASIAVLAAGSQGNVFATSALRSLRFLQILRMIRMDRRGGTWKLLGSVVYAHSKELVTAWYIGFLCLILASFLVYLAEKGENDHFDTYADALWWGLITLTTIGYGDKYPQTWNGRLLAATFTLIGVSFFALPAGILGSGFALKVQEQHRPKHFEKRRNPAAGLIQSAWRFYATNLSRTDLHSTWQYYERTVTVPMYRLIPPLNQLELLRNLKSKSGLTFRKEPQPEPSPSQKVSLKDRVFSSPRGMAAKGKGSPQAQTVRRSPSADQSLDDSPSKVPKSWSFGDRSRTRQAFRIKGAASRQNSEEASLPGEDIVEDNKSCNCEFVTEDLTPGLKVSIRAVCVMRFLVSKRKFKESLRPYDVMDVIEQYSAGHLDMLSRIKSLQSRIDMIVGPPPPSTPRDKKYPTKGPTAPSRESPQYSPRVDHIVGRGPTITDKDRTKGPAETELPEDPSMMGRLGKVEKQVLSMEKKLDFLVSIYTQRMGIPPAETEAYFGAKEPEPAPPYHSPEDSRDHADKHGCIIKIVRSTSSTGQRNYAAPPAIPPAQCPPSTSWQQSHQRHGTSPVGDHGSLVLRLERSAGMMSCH

Potassium voltage-gated channel subfamily KQT member 2 (Mus musculus), sequence (Q9Z351 whole entry): as above

Structure (SMILES)	E/Eref [1]	EC50 [2] [nM]
C[C@H](NC(=O)/C=C/c1ccccc1)c1cccc(N2CCOCC2)c1	1.4	3280
C[C@H](NC(=O)/C=C/c1ccccc1F)c1ccc2c(c1)NCCO2	1.2	2000
C[C@H](NC(=O)/C=C/c1ccccc1F)c1ccc2c(c1)N(CC1CC1)CCO2	1.83	60
CCN1CCOc2ccc([C@H](C)NC(=O)/C=C/c3ccccc3F)cc21	2.1	200
C[C@H](NC(=O)/C=C/c1ccccc1F)c1ccc2c(c1)N(C)CCO2	1.8	940
CCOC(=O)Nc1ccc(NCc2ccc(F)cc2)cc1N [EZOGABINE]	1.6	1300
